The source of these data is patent US11225475B2, “Substituted pyridines as inhibitors of histone deacetylase” (Alkermes, Inc., priority 2017, dated 2022).

The target of data set [1] is T1, HDAC2 (Homo sapiens (Human), UniProt Q92769). The data set is described as follows: HDAC2 enzymatic assay (deacetylation of peptide substrate, Caliper LabChip). The data set is classed as biochemical. Particulars: reaction time 17 hours, 25° C. On the procedure:
(§1) The following describes an assay protocol for measuring the deacetylation of a peptide substrate by the enzymes HDAC2 or HDAC1. Enzyme, substrate, and cofactors are combined in a well of a microtiter plate and incubated for […] at 25° C. At the end of the incubation, the reaction is quenched by the addition of an SDS-containing buffer. Substrate and product are separated and quantified electrophoretically using the microfluidic-based LabChip 3000 Drug Discovery System from Caliper Life Sciences. The peptide substrate used in this assay is FAM-TSRHK(AC)KL-CONH2 (FAM is carboxyfluorescein). Peptide should be >98% purity by Capillary Electrophoresis. • 1. To a well of a 384-well plate, add 5 μL of 2× enzyme buffer. Using Labcyte Echo 550, add 100 nl compound. Enzyme and compound may be pre-incubated at this time if desired. • 2. Add 5 μL of 2× substrate buffer. • 3. Incubate plate at 25° C. for 17 hours. • 4. Terminate reaction by adding 40 μL of 1.55× stop buffer. • 5. Create job on a Caliper LabChip® 3000 Drug Discovery System. • 6. Load the plate and start electrophoresis using blue laser (480 nm) for excitation and green CCD (520 nm) for detection (CCD2). Reaction time=17 hours; Reaction temperature=25° C.
(§2) 1% DMSO (from compound) 1 μM FAM-TSRHK(AC)KL-CONH2 5 nM HDAC Enzyme (specific activity may vary from lot-to-lot, and enzyme concentration may need to be adjusted to yield ˜10-20% conversion of substrate to product).
(§3) Substrate and product peptides present in each sample are separated electrophoretically using the LabChip 3000 capillary electrophoresis instrument. As substrate and product peptides are separated, two peaks of fluorescence are observed. Change in the relative fluorescence intensity of the substrate and product peaks is the parameter measured, reflecting enzyme activity. Capillary electrophoregramms (RDA acquisition files) are analyzed using HTS Well Analyzer software (Caliper Life Sciences). The enzyme activity in each sample is determined as the product to sum ratio (PSR):P/(S+P), where P is the peak height of the product peptide and S is the peak height of the substrate peptide. For each compound, enzyme activity is measured at various concentrations (12 concentrations of compound spaced by 3× dilution intervals). Negative control samples (0%-inhibition in the absence of inhibitor) and positive control samples (100%-inhibition, in the presence of 20 mM EDTA) are assembled in replicates of four and are used to calculate %-inhibition values for each compound at each concentration. Percent inhibition (Pinh) is determined using following equation: Pinh=(PSR0%−PSRinh)/(PSR0%−PSR100%)*100, where PSRinh is the product sum ratio in the presence of inhibitor, PSR0% is the average product sum ration in the absence of inhibitor and PSR100% is the average product sum ratio in 100%-inhibition control samples.
(§4) The IC50 values of inhibitors are determined by fitting the inhibition curves (Pinh versus inhibitor concentration) by 4 parameter sigmoidal dose-response model using XLfit 4 software (MDS).

In another data set the target is HDAC1 (Homo sapiens (Human), UniProt Q13547). The data set is described as follows: HDAC1 enzymatic assay (deacetylation of peptide substrate, Caliper LabChip). The data set is classed as biochemical. Particulars: reaction time 17 hours, 25° C. On the procedure: as §1, §2, §3, §4
HDAC1, sequence (Q13547 whole entry): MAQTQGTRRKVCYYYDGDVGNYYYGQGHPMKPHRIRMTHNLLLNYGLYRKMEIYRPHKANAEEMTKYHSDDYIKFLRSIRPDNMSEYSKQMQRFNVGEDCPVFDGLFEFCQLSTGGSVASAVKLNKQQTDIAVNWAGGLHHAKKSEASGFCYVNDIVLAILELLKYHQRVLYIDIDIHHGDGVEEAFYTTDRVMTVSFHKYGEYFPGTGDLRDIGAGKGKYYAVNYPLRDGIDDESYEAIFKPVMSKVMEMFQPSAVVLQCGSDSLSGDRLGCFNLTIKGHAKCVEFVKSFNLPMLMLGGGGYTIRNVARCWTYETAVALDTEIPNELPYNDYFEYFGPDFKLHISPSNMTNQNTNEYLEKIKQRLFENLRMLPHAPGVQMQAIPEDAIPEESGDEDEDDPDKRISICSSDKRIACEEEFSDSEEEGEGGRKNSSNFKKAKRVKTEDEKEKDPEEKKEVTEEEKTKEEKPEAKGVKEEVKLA
Data set [2] deals with T1, HDAC2. Briefly: HDAC2 enzymatic inhibition assay in SH-SY5Y cell lysate (HDAC-Glo 2). It counts as cell-based. Particulars: SH-SY5Y cells, five hours incubation. On the procedure: SH-SY5Y cells (Sigma) were cultured in Eagle's Modified Essential Medium supplemented with 10% fetal bovine serum and pen/strep. Twenty-four hours prior to compound dosing 20 uL of cells were plated in white 384 well plates at a density of 1,500 cells/well. Compounds were serially diluted in neat DMSO and then diluted 1:100 v/v into media without FBS and mixed. Media was removed from the plated cells and the diluted compounds in serum free media (1% v/v final DMSO) were added and incubated at 37.0 for five hours. Ten uL of HDAC-Glo 2 reagent with 0.1% Triton X-100 was then added, the plate was mixed and allowed to develop at room temperature for 100 minutes. Plates were then read with a Spectramax LMax luminometer employing a 0.4s integration time. Dose response curves were constructed with normalized data where CI-994 at 100 uM was defined as 100% inhibition and DMSO alone as 0% inhibition.

Data set [3] has as its system human erythroid (CFU-E, BFU-E) progenitors. The data set is described as follows: Erythroid CFU assay (human bone marrow clonogenic progenitors). It counts as cell-based. Particulars: 10 uM, 14 days in culture. On the procedure:
(§5) Clonogenic progenitors of human erythroid (CFU-E, BFU-E), granulocyte-monocyte (CFU-GM) and multipotential (CFU-GEMM) lineages were assessed in a semi-solid methylcellulose-based media formulation containing rhIL-3 (10 ng/mL), rhGM-SCF (10 ng/mL), rhSCF (50 ng/mL) and Epo (3 U/mL).
(§6) Normal human bone marrow light density cells derived from normal bone marrow (NorCal Biologics, California) and qualified at ReachBio, were stored in the gaseous phase of liquid nitrogen (−152° C.) until required for the assay. On the day of the experiment, the cells were thawed rapidly, the contents of each vial was diluted in 10 mL of Iscove's modified Dulbecco's medium containing 10% fetal bovine serum (IMDM+10% FBS) and washed by centrifugation (approximately 1200 r.p.m. for 10 minutes, room temperature). The supernatant was discarded and the cell pellets resuspended in a known volume of IMDM+10% FBS. A cell count (3% glacial acetic acid) and viability assessment (trypan blue exclusion test) was performed for the bone marrow sample.
(§7) On the day of the experiment, the compounds were dissolved in DMSO to a stock concentration of 10 mM. Serial dilutions were prepared from the stock concentration to achieve concentrations of 2 and 0.4 mM. When added to the methylcellulose-based media at 1:1000 (v/v), the final test concentrations of 10, 2 and 0.4 μM were achieved. Additionally, 5-FU was evaluated at 1.0, 0.1 and 0.01 μg/mL.
(§8) Clonogenic progenitors of the human erythroid (CFU-E and BFU-E) and myeloid (CFU-GM) lineages were set up in the methylcellulose-based media formulations described above. All compounds were added to the medium to give the final desired concentrations ([…] 5-Fluorouracil (Sigma Aldrich) was used as a positive control for progenitor proliferation (inhibition of colony growth) and was introduced to the human bone marrow cultures at 1.0, 0.1, and 0.01 μg/mL. Solvent control cultures (containing no compound but 0.1% DMSO) as well as standard controls (containing no compound and no DMSO) were also initiated.
(§9) Human myeloid and erythroid progenitor assays were initiated at 2.0×10^4 cells per culture. Following 14 days in culture, myeloid and erythroid colonies were assessed microscopically and scored by trained personnel. The colonies were divided into the following categories based on size and morphology: CFU-E, BFU-E, CFU-GM and CFU-GEMM.
(§10) The mean±one standard deviation of three replicate cultures was calculated for progenitors of each category (CFU-E, BFU-E, etc.). Two-tailed t-tests were performed to assess if there was a difference in the number of colonies generated between solvent control and treated cultures. Due to the potential subjectivity of colony enumeration, a p value of less than 0.01 is deemed significant. To calculate the concentration of 50% inhibition of colony growth (IC50) for each compound, a dose response curve was generated plotting the log of the compound concentration versus the percentage of control colony growth using XLfit software (IDBS). The concentration of 50% inhibition of colony growth (IC50) was calculated based on the sigmoid curve fit using Dose-Response, One-Site Model formula: y=A+[(B−A)/(1+((C/x)^D))], where A=the initial value (baseline response), B=maximum response, C=center (drug concentration that provokes a response halfway between A and B) and D=slope of the curve at midpoint. Further, plots and additional dose response curves were generated using GraphPad Prism 7.0.
(§11) Erythroid (CFU-E and BFU-E), myeloid (CFU-GM) and multi-potential (CFU-GEMM) colony enumeration was performed by trained personnel. The distribution of colony types as well as general colony and cellular morphology was analyzed. For statistical analysis colony numbers in compound treated cultures were compared to the solvent control cultures. […] The experiment was used to evaluate the potential effect of test compounds on human erythroid and myeloid progenitor proliferation in a methylcellulose-based medium. […]

Data set [4] deals with human myeloid (CFU-GM) progenitors. The data set is described as follows: Myeloid CFU assay (human bone marrow clonogenic progenitors). The data set is classed as cell-based. Particulars: 14 days in culture. On the procedure: as §5, §6, §7, §8, §9, §10, §11

pIC50: −log10 of the molar value.

T1 sequence (Q92769 whole entry): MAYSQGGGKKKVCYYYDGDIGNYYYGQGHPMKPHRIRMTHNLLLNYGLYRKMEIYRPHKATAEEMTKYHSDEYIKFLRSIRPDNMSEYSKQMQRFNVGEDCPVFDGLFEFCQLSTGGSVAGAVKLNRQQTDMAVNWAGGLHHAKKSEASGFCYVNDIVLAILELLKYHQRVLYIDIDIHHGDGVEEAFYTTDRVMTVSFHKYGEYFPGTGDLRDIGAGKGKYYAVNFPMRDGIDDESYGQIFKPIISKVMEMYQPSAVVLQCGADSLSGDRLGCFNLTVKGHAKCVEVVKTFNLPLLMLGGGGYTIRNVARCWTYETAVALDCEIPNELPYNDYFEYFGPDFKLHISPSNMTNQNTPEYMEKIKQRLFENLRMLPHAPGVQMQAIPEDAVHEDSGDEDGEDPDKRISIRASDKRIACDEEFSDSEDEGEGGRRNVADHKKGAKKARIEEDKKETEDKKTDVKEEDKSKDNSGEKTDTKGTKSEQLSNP

Take `Cc1ncc2c(n1)CN(C(=O)Nc1nc(-c3ccc(F)cc3F)ccc1N)C2` [Compound 5]: the pIC50 (in general, the IC50 on a negative log10 scale, so that one unit is a factor of ten) was 5.30 to 6.30 against HDAC2 [1], 5.30 to 6.30 against HDAC1 and 5.82 to 6.00 at HDAC2 [2]. Further, the “Erythroid % control remaining @ 10 uM dose” value in data set [3] stood at 69%. Further, the “Myeloid % control remaining @ 10 uM dose” value in data set [4] is given as 82%.
`COCCn1cc2c(n1)CN(C(=O)Nc1nc(-c3ccccc3F)ccc1N)C2` [Compound 8]: the pIC50 against HDAC2 [1] is 5.30 to 6.30; against HDAC1, 6.30 to 7.00; against HDAC2 [2] it was 6.00 to 7.00. In data set [3], the “Erythroid % control remaining @ 10 uM dose” value amounted to 72%. Further, the “Myeloid % control remaining @ 10 uM dose” value in data set [4] was 75%.
In the same order, the values of `CCn1cc2c(n1)CN(C(=O)Nc1nc(-c3ccc(F)cc3F)ccc1N)C2` [Compound 10] are 6.30 to 7.00, 6.30 to 7.00, 6.00 to 7.00, 38% and 77%.
For `COCc1cc2c(cn1)CN(C(=O)Nc1nc(-c3ccccc3F)ccc1N)C2` [Compound 9], the pIC50 against HDAC2 [1] is 5.30 to 6.30; at HDAC1, 6.30 to 7.00; at HDAC2 [2] it was 6.00 to 7.00. The “Erythroid % control remaining @ 10 uM dose” value in data set [3] came out at 87%. Moreover, the “Myeloid % control remaining @ 10 uM dose” value in data set [4] is on record as 102%.
On to `CCc1ncc2c(n1)CN(C(=O)Nc1nc(-c3ccc(F)cc3F)ccc1N)C2` [Compound 7], for which the pIC50 on HDAC2 [1] is 5.30 to 6.30; against HDAC1, 6.30 to 7.00; at HDAC2 [2] it was 6.00 to 7.00. For the same compound, the “Erythroid % control remaining @ 10 uM dose” value in data set [3] was found to be 69%. In addition, the “Myeloid % control remaining @ 10 uM dose” value in data set [4] came out at 105%.
For the compound `COCc1ccc2c(n1)CN(C(=O)Nc1nc(-c3ccc(F)cc3F)ccc1N)C2` [Compound 2], the pIC50 on HDAC2 [1] was 5.30 to 6.30; against HDAC1 it was 6.30 to 7.00; at HDAC2 [2] it was 5.82 to 6.00. The “Erythroid % control remaining @ 10 uM dose” value in data set [3] was 62%. In addition, in data set [4], the “Myeloid % control remaining @ 10 uM dose” value is on record as 92%.
Regarding `Nc1ccc(-c2ccc(F)cc2F)nc1NC(=O)N1Cc2cnc(CN3CC(F)C3)cc2C1` [Compound 4], the pIC50 against HDAC2 [1] is 5.30 to 6.30; on HDAC1, 6.30 to 7.00; against HDAC2 [2], 5.82 to 6.00. The “Erythroid % control remaining @ 10 uM dose” value in data set [3] was 62%. In addition, the “Myeloid % control remaining @ 10 uM dose” value in data set [4] is 102%.
As to `COCCn1cc2c(n1)CN(C(=O)Nc1nc(-c3ccc(Cl)s3)ccc1N)C2` [Compound 6], the pIC50 against HDAC2 [1] is 5.30 to 6.30; on HDAC1 it was 5.30 to 6.30; at HDAC2 [2], below 5.82. Besides, in data set [3], the “Erythroid % control remaining @ 10 uM dose” value amounted to 69%. Besides, the “Myeloid % control remaining @ 10 uM dose” value in data set [4] came to 82%.
`Cc1nc2c(s1)CN(C(=O)Nc1nc(-c3ccc(F)cc3F)ccc1N)C2` [Compound 3]: the figures for the pIC50 against HDAC2 [1], against HDAC1 and at HDAC2 [2] were 5.30 to 6.30, 6.30 to 7.00 and 6.00 to 7.00, respectively. In addition, the “Erythroid % control remaining @ 10 uM dose” value in data set [3] is 89%. Further, the “Myeloid % control remaining @ 10 uM dose” value in data set [4] worked out at 109%.
For `Cc1cc2c(cn1)CN(C(=O)Nc1nc(-c3ccc(F)cc3F)ccc1N)C2` [Compound 1], the pIC50 against HDAC2 [1] is 6.30 to 7.00; on HDAC1 it was 6.30 to 7.00; against HDAC2 [2], 6.00 to 7.00. In addition, the “Erythroid % control remaining @ 10 uM dose” value in data set [3] is given as 53%. Also, the “Myeloid % control remaining @ 10 uM dose” value in data set [4] was 100%.
